# Reference: the Kinase Knowledgebase extract (Sharma et al. 2016)
# pIC50: −log10 of the molar value.
# Target: PIK3CA (human) (UniProt P42336)
# Test: Assessment of PI3KCA Kinase Activity
# PIK3CA (human), sequence (P42336 whole entry, looked up): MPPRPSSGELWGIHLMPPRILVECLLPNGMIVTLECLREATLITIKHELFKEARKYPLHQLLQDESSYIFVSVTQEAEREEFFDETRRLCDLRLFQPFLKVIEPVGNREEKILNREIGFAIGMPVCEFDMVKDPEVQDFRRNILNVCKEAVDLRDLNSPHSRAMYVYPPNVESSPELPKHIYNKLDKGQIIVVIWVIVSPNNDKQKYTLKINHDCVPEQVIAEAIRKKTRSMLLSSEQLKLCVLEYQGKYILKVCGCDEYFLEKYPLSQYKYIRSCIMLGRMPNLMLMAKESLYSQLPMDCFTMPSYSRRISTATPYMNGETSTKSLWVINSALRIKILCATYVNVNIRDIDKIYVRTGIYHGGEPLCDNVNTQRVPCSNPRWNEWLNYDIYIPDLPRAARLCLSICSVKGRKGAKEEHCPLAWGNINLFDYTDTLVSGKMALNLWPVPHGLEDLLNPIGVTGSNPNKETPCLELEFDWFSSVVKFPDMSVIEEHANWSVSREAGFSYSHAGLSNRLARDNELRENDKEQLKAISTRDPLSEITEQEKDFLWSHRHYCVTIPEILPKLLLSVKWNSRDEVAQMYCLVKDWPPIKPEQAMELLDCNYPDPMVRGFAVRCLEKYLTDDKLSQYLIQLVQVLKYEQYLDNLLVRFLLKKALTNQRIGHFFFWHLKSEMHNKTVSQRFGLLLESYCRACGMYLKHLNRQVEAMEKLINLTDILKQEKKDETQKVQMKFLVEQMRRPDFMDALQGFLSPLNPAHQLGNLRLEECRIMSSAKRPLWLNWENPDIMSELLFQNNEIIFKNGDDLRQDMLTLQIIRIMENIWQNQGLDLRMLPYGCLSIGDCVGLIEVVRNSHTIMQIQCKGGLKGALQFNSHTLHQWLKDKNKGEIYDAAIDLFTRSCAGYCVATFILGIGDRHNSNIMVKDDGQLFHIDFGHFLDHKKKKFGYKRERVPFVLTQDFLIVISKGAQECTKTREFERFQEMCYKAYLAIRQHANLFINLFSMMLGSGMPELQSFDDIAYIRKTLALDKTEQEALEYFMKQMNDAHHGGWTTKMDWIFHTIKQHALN
row,pIC50,Compound
1,> 7.00,Cc1nn2ccsc2c1-c1nc(-c2ccccc2)c(-c2ncc[nH]2)s1
2,> 7.00,Cc1nn2ccc(OCCN3CCNC(=O)C3)cc2c1-c1nc(-c2ccccc2)c(-c2nc[nH]n2)s1
3,> 7.00,N#Cc1c(-c2ccnc(N)c2)sc(-c2nnc[nH]2)c1-c1ccc(Cl)cc1Cl
4,6.00 to 7.00,CC(=O)Nc1cc(-c2nc(-c3csc4ccccc34)c(-c3ncc[nH]3)s2)ccn1
5,6.00 to 7.00,CC(=O)Nc1cc(-c2nc(-c3ccc(CO)cc3)c(-c3ncc[nH]3)s2)ccn1
6,> 7.00,CNC(=O)Nc1cc(-c2sc(-c3ncc[nH]3)c(-c3ccc(Cl)cc3Cl)c2C#N)ccn1
7,> 7.00,COc1ccccc1-c1nc(-c2c(C)nn3ccccc23)sc1-c1nnc[nH]1
8,> 7.00,Cc1n[nH]c(C)c1-c1nc(-c2c(C)nn3ccccc23)sc1-c1nc[nH]n1
9,> 7.00,COC(=O)Nc1cc(-c2sc(-c3ncc[nH]3)c(-c3ccc(Cl)cc3Cl)c2C#N)ccn1
10,> 7.00,Cc1nn2ccc(OCCN3CCN(S(C)(=O)=O)CC3)cc2c1-c1nc(-c2ccccc2)c(-c2nc[nH]n2)s1
11,> 7.00,N#Cc1c(-c2ccnc(NC(N)=O)c2)sc(-c2ccn[nH]2)c1-c1ccc(Cl)cc1Cl
12,6.00 to 7.00,CCOc1nc(-c2ccnc(NC(=O)c3cc(C)on3)c2)sc1-c1nnc[nH]1
13,6.00 to 7.00,CC(=O)Nc1cc(-c2nc(-c3ccsc3)c(-c3ncc[nH]3)s2)ccn1
14,6.00 to 7.00,N#Cc1c(-c2ccncc2)sc(-c2nnc[nH]2)c1-c1ccc(Cl)cc1Cl
15,> 7.00,CC(C)(C)OC(=O)Nc1cc(-c2sc(-c3ncc[nH]3)c(-c3ccc(Cl)cc3Cl)c2C#N)ccn1
16,6.00 to 7.00,COc1ccc(-c2nc(-c3ccnc(NC(C)=O)c3)sc2-c2ncc[nH]2)cc1
17,6.00 to 7.00,COCCCNc1cc(-c2sc(-c3nnc[nH]3)c(-c3ccc(Cl)cc3Cl)c2C#N)ccn1
18,6.00 to 7.00,CC(=O)Nc1cc(-c2nc(-c3cccc4cnccc34)c(-c3ncc[nH]3)s2)ccn1
19,> 7.00,Nc1cc(-c2nc(-c3ccc(Cl)cc3Cl)c(-c3ncc[nH]3)s2)ccn1
20,> 7.00,N#Cc1c(-c2ccnc(NC(N)=O)c2)sc(-c2nnc[nH]2)c1-c1ccc(Cl)cc1Cl
21,6.00 to 7.00,N#Cc1c(-c2ccnc(NC(=O)CCc3ccccc3)c2)sc(-c2nnc[nH]2)c1-c1ccc(Cl)cc1Cl
22,> 7.00,CC(=O)Nc1cc(-c2nc(-c3ccccc3Cl)c(-c3ncc[nH]3)s2)ccn1
23,> 7.00,CCOc1nc(-c2ccnc(NC(C)=O)c2)sc1-c1nnc[nH]1
24,> 7.00,CC(=O)Nc1cc(-c2nc(-c3ccc(Cl)cc3Cl)c(-c3nc(C)c[nH]3)s2)ccn1

row,pIC50,Compound
1,> 7.00,Cc1ccc(-c2nc(-c3c(C)nn4ccccc34)sc2-c2nc[nH]n2)o1
2,> 7.00,Cc1cc(-c2cc(-c3ccc(Cl)cc3Cl)c(-c3ncc[nH]3)s2)ccn1
3,> 7.00,CC(=O)Nc1cc(-c2cc(-c3ccc(Cl)cc3Cl)c(-c3ncc[nH]3)s2)ccn1
4,6.00 to 7.00,CCOc1nc(-c2ccnc(NC(=O)COc3ccccc3)c2)sc1-c1nnc[nH]1
5,> 7.00,COc1cccc(F)c1-c1nc(-c2c(C)nn3ccccc23)sc1-c1nc[nH]n1
6,6.00 to 7.00,CC(=O)Nc1cc(-c2nc(-c3ccc4nonc4c3)c(-c3ncc[nH]3)s2)ccn1
7,> 7.00,Cc1nc2ccc(CN3CC[C@H](N)C3)cn2c1-c1nc(-c2ccccc2)c(-c2nnc[nH]2)s1
8,> 7.00,Cc1nn2ccccc2c1-c1nc(-c2cn(C)nc2C(F)(F)F)c(-c2nc[nH]n2)s1
9,6.00 to 7.00,Cc1nc2ccc(Br)cn2c1-c1nc(-c2ccccc2)c(-c2nc[nH]n2)s1
10,6.00 to 7.00,N#Cc1c(-c2nc(N)ncc2Cl)sc(-c2nnc[nH]2)c1-c1ccc(Cl)cc1Cl
11,> 7.00,CC(=O)Nc1cc(-c2sc(-c3nnc(Br)[nH]3)c(-c3ccc(Cl)cc3Cl)c2C#N)ccn1
12,6.00 to 7.00,N#Cc1c(-c2cc(N)ncn2)sc(C(N)=O)c1-c1ccc(Cl)cc1Cl
13,6.00 to 7.00,CC(=O)Nc1nc2c(-c3cc(-c4ccc(Cl)cc4Cl)c(-c4ncc[nH]4)s3)ncnc2s1
14,> 7.00,Cc1nc2ccc(CN(C)CCN)cn2c1-c1nc(-c2ccccc2)c(-c2nnc[nH]2)s1
15,6.00 to 7.00,N#Cc1c(-c2ccnc(F)c2)sc(-c2nnc[nH]2)c1-c1ccc(Cl)cc1Cl
16,6.00 to 7.00,CC(=O)Nc1cc(-c2nc(-c3ccc(N(C)C)cc3)c(-c3ncc[nH]3)s2)ccn1
17,> 7.00,COc1cccc(Cl)c1-c1nc(-c2c(C)nn3ccccc23)sc1-c1nc[nH]n1
18,6.00 to 7.00,N#Cc1c(-c2ccncc2)sc(C(N)=O)c1-c1ccc(Cl)cc1Cl
19,6.00 to 7.00,Cc1cc(C(=O)Nc2cc(-c3sc(-c4nnc[nH]4)c(-c4ccc(Cl)cc4Cl)c3C#N)ccn2)no1
20,6.00 to 7.00,Nc1cc(-c2nc(-c3ccc(Cl)cc3Cl)c(-c3ncc[nH]3)s2)ncn1
21,> 7.00,Cc1nn2ccc(OCCO)cc2c1-c1nc(-c2ccccc2)c(-c2nnc[nH]2)s1
22,6.00 to 7.00,Cc1nn2ccccc2c1-c1nc(-c2cnn(CCN3CCOCC3)c2)c(-c2nc[nH]n2)s1
23,> 7.00,Cc1nn2ccc(OCCN3CCOCC3)cc2c1-c1nc(-c2ccccc2F)c(-c2nc[nH]n2)s1
24,6.00 to 7.00,Cc1nn2ccccc2c1-c1nc(-c2ccc(N3CCNCC3)nc2)c(-c2nc[nH]n2)s1

row,pIC50,Compound
1,> 7.00,CCOc1nc(-c2ccnc(NC(=O)c3cccc(F)c3)c2)sc1-c1nnc[nH]1
2,> 7.00,N#Cc1c(-c2ccnc(NCCCO)n2)sc(-c2nnc[nH]2)c1-c1ccc(Cl)cc1Cl
3,> 7.00,N#Cc1c(-c2ccnc(NC(=O)CCl)c2)sc(-c2nnc[nH]2)c1-c1ccc(Cl)cc1Cl
4,6.00 to 7.00,N#Cc1c(-c2ccnc(F)c2)sc(C(N)=O)c1-c1ccc(Cl)cc1Cl
5,> 7.00,COc1ccc(-c2nc(-c3c(C)nn4ccccc34)sc2-c2nc[nH]n2)c(OC)c1
6,> 7.00,CC(=O)N1CCN(Cc2ccc3nc(C)c(-c4nc(-c5ccccc5)c(-c5nc[nH]n5)s4)n3c2)CC1
7,> 7.00,CCOc1nc(-c2c(C)nn3ccccc23)sc1-c1nnc[nH]1
8,> 7.00,CC(=O)N1CCC(Oc2ccn3nc(C)c(-c4nc(-c5ccccc5)c(-c5nc[nH]n5)s4)c3c2)CC1
9,6.00 to 7.00,Clc1ccc(-c2cc(-c3ncnc4[nH]cnc34)sc2-c2ncc[nH]2)c(Cl)c1
10,6.00 to 7.00,CC(=O)Nc1cc(-c2nc(-c3ccc(Cl)cc3)c(-c3ncc[nH]3)s2)ccn1
11,> 7.00,CC(C)CC(=O)Nc1cc(-c2sc(-c3ncc[nH]3)c(-c3ccc(Cl)cc3Cl)c2C#N)ccn1
12,> 7.00,Cc1nn2ccccc2c1-c1cc(-c2ccccc2)c(-c2nnc[nH]2)s1
13,> 7.00,CC(=O)N1CCN(CCOc2ccn3nc(C)c(-c4nc(-c5ccccc5)c(-c5nc[nH]n5)s4)c3c2)CC1
14,6.00 to 7.00,CC(=O)Nc1cc(-c2sc(-c3nnc[nH]3)c(-c3ccc(Cl)cc3Cl)c2C#N)c(F)cn1
15,> 7.00,Cc1nn2ccccc2c1-c1nc(C(C)(C)C)c(-c2nnc[nH]2)s1
16,> 7.00,Cc1nn2ccsc2c1-c1nc(OCc2ccccc2)c(-c2nnc[nH]2)s1
17,> 7.00,Cc1nnc(-c2sc(-c3c(C)nn4ccsc34)nc2-c2ccccc2)[nH]1
18,6.00 to 7.00,CCOc1nc(-c2ccnc(NC(=O)c3ccc(F)cc3)c2)sc1-c1nnc[nH]1
19,6.00 to 7.00,CC(=O)Nc1cc(-c2nc(NC(C)=O)c(-c3ncc[nH]3)s2)ccn1
20,6.00 to 7.00,N#Cc1c(-c2ccnc(NC(=O)c3cccnc3)c2)sc(-c2nnc[nH]2)c1-c1ccc(Cl)cc1Cl
21,6.00 to 7.00,Cc1nc2scc(C)n2c1-c1nc(-c2ccccc2)c(-c2nc[nH]n2)s1
22,> 7.00,Cc1nn2ccc(O)cc2c1-c1nc(-c2ccccc2)c(-c2nnc[nH]2)s1
23,6.00 to 7.00,O=C(CCSc1ccccc1)Nc1cc(-c2nc(-c3ccccc3)c(-c3nnc[nH]3)s2)ccn1
24,6.00 to 7.00,CC(=O)Nc1cc(-c2nc(-c3ccc(C(C)(C)C#N)cc3)c(-c3ncc[nH]3)s2)ccn1

row,pIC50,Compound
1,> 7.00,Cc1nn2ccccc2c1-c1nc(-c2cccs2)c(-c2nc[nH]n2)s1
2,> 7.00,Cc1nc2ccc(CCN)cn2c1-c1nc(-c2ccccc2)c(-c2nnc[nH]2)s1
3,> 7.00,CC(=O)Nc1cc(-c2nc(-c3ccc(F)cc3F)c(-c3ncc[nH]3)s2)ccn1
4,> 7.00,Cc1nn2ccc(OCCN3CCOCC3)cc2c1-c1nc(-c2ccccc2)c(-c2nnc[nH]2)s1
5,> 7.00,Cc1cccc(C)c1-c1nc(-c2c(C)nn3ccccc23)sc1-c1nc[nH]n1
6,6.00 to 7.00,CNc1cc(-c2sc(-c3nccn3C)c(-c3ccc(Cl)cc3Cl)c2C#N)ccn1
7,> 7.00,Cc1nn2ccccc2c1-c1nc(-c2ccccc2)c(-c2nnc[nH]2)s1
8,> 7.00,Cc1nn2ccc(OCCCN3CCOCC3)cc2c1-c1nc(-c2ccccc2)c(-c2nc[nH]n2)s1
9,> 7.00,COCC(=O)Nc1cc(-c2sc(-c3nnc[nH]3)c(-c3ccc(Cl)cc3Cl)c2C#N)ccn1
10,> 7.00,CC(=O)Nc1cc(-c2nc(-c3ccc4c(c3)OCO4)c(-c3ncc[nH]3)s2)ccn1
11,> 7.00,N#Cc1c(-c2ccnc(NC(=O)CN)c2)sc(-c2nnc[nH]2)c1-c1ccc(Cl)cc1Cl
12,6.00 to 7.00,COC[C@@H]1CCCN1CCC(=O)Nc1cc(-c2nc(-c3ccccc3)c(-c3nnc[nH]3)s2)ccn1
13,> 7.00,COCCNc1nccc(-c2sc(-c3nnc[nH]3)c(-c3ccc(Cl)cc3Cl)c2C#N)n1
14,> 7.00,O=C(Nc1cc(-c2cc(-c3ccc(Cl)cc3Cl)c(-c3ncc[nH]3)s2)ccn1)C1CC1
15,6.00 to 7.00,CC(=O)Nc1cc(-c2sc(-c3nccn3Cc3ccc(F)cc3)c(-c3ccc(Cl)cc3Cl)c2C#N)ccn1
16,6.00 to 7.00,N#Cc1c(-c2ccnc(NC(=O)C3CCC3)c2)sc(-c2nnc[nH]2)c1-c1ccc(Cl)cc1Cl
17,> 7.00,Cc1ccc(-c2nc(-c3c(C)nn4ccccc34)sc2-c2nc[nH]n2)s1
18,6.00 to 7.00,N#Cc1c(-c2ccnc(NC(=O)c3cnccn3)c2)sc(-c2nnc[nH]2)c1-c1ccc(Cl)cc1Cl
19,> 7.00,Cc1nc2ccc(CCCN)cn2c1-c1nc(-c2ccccc2)c(-c2nnc[nH]2)s1
20,6.00 to 7.00,CC(=O)Nc1cc(-c2nc(-c3cccc(Cl)c3)c(-c3ncc[nH]3)s2)ccn1
21,> 7.00,Cc1nc2ccc(CN(CCN)Cc3ccccc3)cn2c1-c1nc(-c2ccccc2)c(-c2nnc[nH]2)s1
22,> 7.00,N#Cc1c(-c2ccnc(NCCO)n2)sc(-c2nnc[nH]2)c1-c1ccc(Cl)cc1Cl
23,> 7.00,CC(C)C(=O)Nc1cc(-c2sc(-c3ncc[nH]3)c(-c3ccc(Cl)cc3Cl)c2C#N)ccn1
24,> 7.00,COc1ccc(Cl)c(-c2nc(-c3ccnc(NC(C)=O)c3)sc2-c2ncc[nH]2)c1
